Laboratory results published in US8778935B2 (Centro Nacional de Investigaciones Oncologicas (CNIO), priority 2009, dated 2014).

What was measured:
PI3K (p110α/p85α) = target: T1, PI3K (p110α/p85α) (Homo sapiens, UniProt P42336); assay: PI3K Activity Assay (ADP Hunter Plus); format: biochemical; details: PI3Kα activity, quantitative results; read-out: PI3Kα IC50
T1 construct: purchased Carna Biosciences 07CBS-0402A
Protocol: The kinase activity was measured by using the commercial ADP Hunter™ Plus assay available from DiscoveRx (#33-016), which is a homogeneous assay to measure the accumulation of ADP, a universal product of kinase activity. […] Reaction was carried out for 1 hour at 25° C. Reagent A and B were sequentially added to the wells and plates were incubated for 30 min at 37° C. […] Values were normalized against the control activity included for each enzyme (i.e., 100% PI3 kinase activity, without compound). These values were plot against the inhibitor concentration and were fit to a sigmoid dose-response curve by using the Graphad software.

phospho-Ser-473-Akt = assay: PI3K signalling: AKT phosphorylation inhibition, Western blot analysis; format: cell-based; details: Homo sapiens, cell assay, read-out: IC50 of AKT Phosphorylation Inhibition (p-AKT cell)
Protocol: Cell culture: The cell lines were obtained from the American Type Culture Collection (ATCC). U2OS (human osteosarcoma) was cultured in Dulbecco's modified Eagle's medium (DMEM). PC3 (human prostate carcinoma), MCF7 (human breast cardinoma), HCT116 (human colon carcinoma), […], U251 (human glyoblastoma) were grown in RPMI. All media were supplemented with 10% fetal bovine serum (FBS) (Sigma) and antibiotics-antimycotics. Cell were maintained in a humidified incubator at 37° C. with 5% CO2 and passaged when confluent using trypsin/EDTA.
AKT phosphorylation Inhibition. Western Blot Analysis: Subconfluent cells were incubated under different conditions and washed twice with TBS prior to lysis. Lysis buffer was added containing 50 mM Tris HCl, 150 mM NaCl, 1% NP-40, 2 mM Na3VO4, 100 mM NaF, 20 mM Na4P2O7 and protease inhibitor cocktail (Roche Molecular Biochemicals). The proteins were resolved on 10% SDS-PAGE and transferred to nitrocellulose membrane (Schleicher & Schuell, Dassel, Germany). The membranes were incubated overnight at 4° C. with antibodies specific for Akt, phospho-Ser-473-Akt (Cell Signaling Technology) and α-tubulin (Sigma), they were washed and then incubated with IRDye800 conjugated anti-mouse and Alexa Fluor 680 goat anti-rabbit IgG secondary antibodies. The bands were visualized using an Odyssey infrared imaging system (Li-Cor Biosciences).

T1 sequence (P42336 whole entry): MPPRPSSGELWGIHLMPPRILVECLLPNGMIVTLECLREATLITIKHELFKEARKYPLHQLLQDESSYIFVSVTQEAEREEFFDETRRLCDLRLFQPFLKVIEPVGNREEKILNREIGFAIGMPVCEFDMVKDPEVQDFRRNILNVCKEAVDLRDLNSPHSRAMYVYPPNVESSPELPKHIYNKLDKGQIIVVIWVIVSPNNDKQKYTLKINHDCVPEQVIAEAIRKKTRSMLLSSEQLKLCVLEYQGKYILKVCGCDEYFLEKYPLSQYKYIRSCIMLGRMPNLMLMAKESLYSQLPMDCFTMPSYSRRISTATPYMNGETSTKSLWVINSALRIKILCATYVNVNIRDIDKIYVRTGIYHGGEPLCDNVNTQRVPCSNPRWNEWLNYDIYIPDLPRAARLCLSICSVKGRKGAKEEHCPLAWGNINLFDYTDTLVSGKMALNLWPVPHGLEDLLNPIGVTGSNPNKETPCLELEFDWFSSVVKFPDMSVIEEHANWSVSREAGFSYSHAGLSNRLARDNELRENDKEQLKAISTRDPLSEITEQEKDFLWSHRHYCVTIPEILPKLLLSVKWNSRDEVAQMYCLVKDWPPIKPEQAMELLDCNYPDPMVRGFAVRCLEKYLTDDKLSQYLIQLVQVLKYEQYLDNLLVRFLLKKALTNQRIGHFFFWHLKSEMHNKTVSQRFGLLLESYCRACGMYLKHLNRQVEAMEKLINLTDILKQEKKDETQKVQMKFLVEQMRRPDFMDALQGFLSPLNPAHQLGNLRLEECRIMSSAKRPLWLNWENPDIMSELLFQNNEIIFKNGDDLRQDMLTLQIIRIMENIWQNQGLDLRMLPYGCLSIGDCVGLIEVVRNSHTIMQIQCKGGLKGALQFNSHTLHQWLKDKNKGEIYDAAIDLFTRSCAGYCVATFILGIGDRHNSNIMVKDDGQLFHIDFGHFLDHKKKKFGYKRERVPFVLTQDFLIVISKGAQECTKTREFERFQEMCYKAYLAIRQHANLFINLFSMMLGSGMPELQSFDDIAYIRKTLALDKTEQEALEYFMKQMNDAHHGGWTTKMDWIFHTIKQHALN
T1 sequence (P27986 whole entry partner): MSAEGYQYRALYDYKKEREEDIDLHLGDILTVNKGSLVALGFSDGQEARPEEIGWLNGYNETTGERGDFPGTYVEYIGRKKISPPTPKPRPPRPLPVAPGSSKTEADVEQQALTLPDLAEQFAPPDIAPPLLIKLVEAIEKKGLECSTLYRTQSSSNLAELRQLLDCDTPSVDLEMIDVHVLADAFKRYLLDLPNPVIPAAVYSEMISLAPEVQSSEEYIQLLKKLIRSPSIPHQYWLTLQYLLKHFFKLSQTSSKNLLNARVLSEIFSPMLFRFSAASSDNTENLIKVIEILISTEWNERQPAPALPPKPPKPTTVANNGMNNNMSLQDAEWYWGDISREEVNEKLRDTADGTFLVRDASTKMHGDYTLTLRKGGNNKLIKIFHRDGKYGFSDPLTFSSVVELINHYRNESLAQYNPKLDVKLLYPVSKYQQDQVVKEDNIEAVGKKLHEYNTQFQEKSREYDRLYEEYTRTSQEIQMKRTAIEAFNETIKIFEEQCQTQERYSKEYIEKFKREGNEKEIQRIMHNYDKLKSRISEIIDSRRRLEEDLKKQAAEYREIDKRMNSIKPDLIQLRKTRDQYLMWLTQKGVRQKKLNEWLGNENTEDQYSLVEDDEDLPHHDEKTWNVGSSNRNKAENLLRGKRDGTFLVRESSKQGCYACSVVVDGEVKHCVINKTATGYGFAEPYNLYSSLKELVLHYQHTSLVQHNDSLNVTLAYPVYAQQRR

IC50 (PI3K (p110α/p85α)) [nM]	IC50 (phospho-Ser-473-Akt) [nM]	Structure (SMILES)
83	469	Nc1ncc(-c2cn3cc(CN4CCOCC4)nc3c(N3CCOCC3)n2)cn1 [2-175]
13	98	CCS(=O)(=O)N1CCN(Cc2cn3cc(-c4cnc(N)nc4)nc(N4CCOCC4)c3n2)CC1 [2-220]
11	135	CC(C)CS(=O)(=O)N1CCN(Cc2cn3cc(-c4cnc(N)nc4)nc(N4CCOCC4)c3n2)CC1 [2-221]
82	95	Nc1ncc(-c2cn3cc(CN4CCS(=O)(=O)CC4)nc3c(N3CCOCC3)n2)cn1 [2-222]

Second part, the molecule before the results:

Structure (SMILES)	IC50 (PI3K (p110α/p85α)) [nM]	IC50 (phospho-Ser-473-Akt) [nM]
Nc1ncc(-c2cn3cc(C(F)(F)F)nc3c(N3CCOCC3)n2)cn1 [2-172]	32	149
COCCNC(=O)c1cn2cc(-c3cccc4[nH]ncc34)nc(N3CCOCC3)c2n1 [2-186]	66	281
CCOC(=O)N1CCC(NC(=O)c2cn3cc(-c4cnc(N)nc4)nc(N4CCOCC4)c3n2)CC1 [2-188]	3	60
Nc1ncc(-c2cn3cc(C(=O)N[C@H]4CC[C@H](O)CC4)nc3c(N3CCOCC3)n2)cn1 [2-192]	10	70
Cc1ncc(-c2cn3cc(CN4CCN(S(C)(=O)=O)CC4)nc3c(N3CCOCC3)n2)cn1 [2-196]	21	134
C[C@@H]1CN(S(C)(=O)=O)C[C@H](C)N1Cc1cn2cc(-c3cnc(N)nc3)nc(N3CCOCC3)c2n1 [2-219]	3	244
